Counter-ions that a name gives are not always drawn.
How the values were obtained:
apomorphine climbing = assay: climbing mice assay (antipsychotic activity, apomorphine-induced climbing); type: in vivo, mice (CK-1 male); conditions: Mus musculus, po, apomorphine 1.5 mg/kg sc challenge
Protocol: Antipsychotic activity is determined in the climbing mice assay by a method similar to those described by P. Protais, et al., Psychopharmacol., 50, 1 (1976) and B. Costall, Eur. J. Pharmacol., 50, 39 (1978).
The subject CK-1 male mice (23-27 grams) are group-housed under standard laboratory conditions. The mice are individually placed in wire mesh stick cages (4"×4"×10") and are allowed one hour for adaptation and exploration of the new environment. Then apomorphine is injected subcutaneously at 1.5 mg/kg, a dose causing climbing in all subjects for 30 minutes. Compounds to be tested for antipsychotic activity are injected intraperitoneally or given oral doses at various time intervals, e.g. 30 minutes, 60 minutes, etc. prior to the apomorphine challenge at a screening dose of 10-60 mg/kg.
For evaluation of climbing, 3 readings are taken at 10, 20 and 30 minutes after apomorphine administration according to the following scale:
4 paws on bottom (no climbing)
2 paws on the wall (rearing)
4 paws on the wall (full climb)
Mice consistently climbing before the injection of apomorphine will be discarded.
With full-developed apomorphine climbing, the animals are hanging on to the cage walls, rather motionless, over longer periods of time. By contrast, climbs due to mere motor stimulation usually only last a few seconds.
The climbing scores are individually totaled (maximal score: 6 per mouse over 3 readings) and the total score of the control group (vehicle intraperitoneally--apomorphine subcutaneously) is set to 100%. ED50 values with 95% confidence limits, calculated by a Linear Regression Analysis, of some of the instant benzopyrrolobenzodiazepines as well as a standard antipsychotic agent are presented in Table 1.

[1] = system: phenylquinone induced writhing; assay: phenyl-p-quinone writhing assay in mice (analgesia); type: in vivo; conditions: Mus musculus, sc, dose for approximately 50% inhibition of writhing
Source text: Some of the benzopyrrolobenzodiazepines and quinobenzodiazepines of the present invention are also useful as analgetics due to their ability to alleviate pain in mammals. […] Exptl. Biol Med., 95 729 (1957)]. Thus, for instance, the subcutaneous dose effecting an approximately 50% inhibition of writhing (ED50) in mice produced in this assay is as shown in Table 2.

SMILES	ED50 (apomorphine climbing)	ED50 [1]
CN1CCN(C2=Nc3ccccc3-n3ccc4cc(Cl)cc2c43)CC1 [4-Chloro-6-(4-methyl-1-piperazinyl)benzo[b]pyrrolo[3,2,1-jk][1,4]benzodiazepine]	13.4 mg/kg	–
CN1CCN(C2=Nc3cc(Br)ccc3N3CCc4cccc2c43)CC1 [9-Bromo-6-(4-methyl-1-piperazinyl)-1,2-dihydrobenzo[b]pyrrolo[3,2,1-jk][1,4]benzodiazepine]	30.8 mg/kg	–
CN1CCN(C2=Nc3cc(Br)ccc3-n3ccc4cccc2c43)CC1 [9-Bromo-6-(4-methyl-1-piperazinyl)benzo[b]pyrrolo[3,2,1-jk][1,4]benzodiazepine]	13.5 mg/kg	0.72 mg/kg
CN(C)CCN(C)C1=Nc2cc(Br)ccc2N2CCc3cccc1c32 [9-Bromo-6-[(2-dimethylamino)-N-methylethylamino]-1,2-dihydrobenzo[b]pyrrolo[3,2,1-jk][1,4]benzodiazepine Dimaleate salt]	–	8.1 mg/kg
Cc1ccc2c(c1)N=C(N1CCN(C)CC1)c1cccc3c1N2CC3 [9-Methyl-6-(4-methyl-1-piperazinyl)-1,2-dihydrobenzo[b]pyrrolo[3,2,1-jk][1,4]benzodiazepine]	25.5 mg/kg	0.34 mg/kg
CN1CCN(C2=Nc3cc(Cl)ccc3N3CCc4cccc2c43)CC1 [9-chloro-6-(4-methyl-1-piperazinyl)-1,2-dihydrobenzo[b]pyrrolo[3,2,1-jk][1,4]benzodiazepine]	–	4.1 mg/kg
CN1CCN(C2=Nc3cc(Cl)ccc3Nc3ccccc32)CC1 [clozapine, reference compound]	23.2 mg/kg	–
CCC(=O)O[C@](Cc1ccccc1)(c1ccccc1)[C@H](C)CN(C)C [propoxyphene, reference compound]	–	3.9 mg/kg

Reference: US4663453A, “Benzo[b]pyrrolo[3,2,1-jk][1,4]benzodiazepines having dopamine receptor activity” (Hoechst-Roussel Pharmaceuticals Inc., priority 1985, dated 1987)
